Results: publication PMC8752837, “Structural basis of BAK activation in mitochondrial apoptosis initiation” (Nature Communications, 2022)
Where two headings read alike, the source gives them in different places. Marks after values point to notes of the source that are not given here.

Columns and labels:
Human BAK-∆TM-His6 (BAK) = target: T1, Human BAK-∆TM-His6 (BAK) (Homo sapiens, UniProt Q16611); assay: Liposome permeabilization assay (ANTS/DPX dye release from LUVs): activation of WT BAK by BH3 peptides;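 on AUC for Experiment-2 (Mean): traces normalized between buffer minimum and 3% CHAPS maximum fluorescence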;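 on AUC for Experiment-3 (Mean): traces normalized between buffer minimum and 3% CHAPS maximum fluorescence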; format: biochemical; set-up: AUC for Experiment-2 (Mean) / AUC for Experiment-3 (Mean) / AUC for Experiment-1 (Mean):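 traces normalized between buffer minimum and 3% CHAPS maximum fluorescence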; settings: for AUC for Experiment-1 (Mean) / AUC for Experiment-2 (Mean) / AUC for Experiment-3 (Mean): AUC 0-88 mins of liposome permeabilization; for AUC for Experiment-1 (Mean): Experiment-1, mean of N replicates; for AUC for Experiment-2 (Mean): Experiment-2, mean of N replicates; for AUC for Experiment-3 (Mean): Experiment-3, mean of N replicates; for EC50: Fig. 4e, AUC vs peptide dose (Suppl. Fig. 6b), n = 2 experiments each of n = 3 technical replicates, read-out: EC50 LP; for EC50 / direct BAK activation compared to WT BID BH3: 50 nM BAK; for direct BAK activation compared to WT BID BH3: liposome permeabilization, Fig. 4c, e
T1 construct: C-terminus truncated recombinant human BAK containing C-terminal 6× histidine tag (MEAS-BAK); made in house; host or cells: E. coli T7 Express pLac I/Y
T1 sequence (Q16611 1-186 limits assumed): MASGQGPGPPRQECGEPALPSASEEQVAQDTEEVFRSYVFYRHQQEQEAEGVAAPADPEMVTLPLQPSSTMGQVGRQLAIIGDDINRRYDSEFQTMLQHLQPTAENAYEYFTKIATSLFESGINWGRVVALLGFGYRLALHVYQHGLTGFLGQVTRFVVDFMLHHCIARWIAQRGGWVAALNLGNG
Procedure: We performed liposome permeabilization assays as previously described[43]–[46]. […] We mixed the lipid film in ANTS/DPX solution by vortexing and sonication (~15 min) followed by extrusion through polycarbonate membrane of 2 μm pore size (Avanti Polar lipids) to generate homogenous large unilamellar vesicles (LUVs). We separated LUVs from free ANTS/DPX by S500 size exclusion chromatography and stored them at 4 °C in the dark. We prepared peptide and protein dilutions in 96-well black flat bottom plates (Costar) kept on ice. […] We quantified liposome permabilization by integrating area under curve (AUC) of normalized traces based on the Simpson’s equation, and analyzed that data in Excel and GraphPad Prism. AUC measurements reflect the kinetic and extent of liposome permeabilization and provide quantitative means for comparison between different experimental conditions (e.g., BAK mutants with gross or partial variation in activity).

GST-BAK = target: T2, GST-BAK (Homo sapiens, UniProt Q16611); assay: Competitive fluorescence polarization assay (displacement of BID BH3 SAHB-F); format: binding
T2 construct: made in house
T2 sequence (Q16611 1-211): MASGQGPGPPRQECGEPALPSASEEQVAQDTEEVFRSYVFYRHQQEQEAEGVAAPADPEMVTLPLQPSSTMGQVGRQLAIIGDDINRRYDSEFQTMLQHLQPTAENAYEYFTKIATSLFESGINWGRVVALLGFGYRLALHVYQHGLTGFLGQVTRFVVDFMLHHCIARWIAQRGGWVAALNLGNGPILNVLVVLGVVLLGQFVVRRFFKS
Text: We also tested the monosubstituted peptides in competitive fluorescence polarization (FP) binding assays, which measure displacement from GST-BAK of BID BH3 stabilized alpha helix of BCL-2 proteins (SAHB) C-terminally tagged with fluorescein and thus informs on peptide binding affinity.
We carried out fluorescence polarization assays, measuring the displacement of the fluorescent peptide BID BH3 SAHB-F from GST-BAK, in 384-well Greiner black polystyrene plates with flat bottom (Sigma-Aldrich). Master mix consisted of 50 mM Tris-HCl pH 7.5, 50 mM KCl, 0.1 mg/mL BSA, 2 mM DTT, 0.005% Tween-20, 10 nM BID BH3 SAHB-F, and 1 µM GST-BAK. We pin transferred peptides using Biomek FX (Beckman Coulter Life Sciences, IN) to achieve final concentration of 500−0.2 µM in 20 µL final volume. We gently centrifuged plates to remove air bubbles for 1 min at 1000 rpm, and incubated them for 60 min at RT. […] Free peptide controls in each plate consisted of only BID BH3 SAHB-F and bound peptide controls containing BID BH3 SAHB-F + GST-BAK. We derived Z’-values using the equation [1 − 3(stdev^L + stdev^H)]/(average^H − average^L), where L is the free peptide control and H is the bound peptide control. […] We processed and visualized data using the software Robust Investigation of Screening Experiments (RISE) developed in house in the Pipeline Pilot platform (Accelrys, v.8.5.0). We performed at least three independent dose-response experiments for each peptide. We estimated IC50 values in RISE and GraphPad Prism v.8.0a.

[1] = displacement of 10 nM BID BH3 SAHB-fluorescein from 1 µM GST-BAK, peptide 500−0.2 µM, 60 min RT, mean ± SD, n = 9 experiments, read-out: IC50 FP
[2] = competitive FP, mean of the experiments (replicated 4-9 times), read-out: IC50 Mean

Row | Compound | AUC for Experiment-1 (Mean) (Human BAK-∆TM-His6 (BAK); 1 μM peptide + 50 nM BAK) | AUC for Experiment-2 (Mean) (Human BAK-∆TM-His6 (BAK); 1 μM peptide + 50 nM BAK) | AUC for Experiment-3 (Mean) (Human BAK-∆TM-His6 (BAK); 1 μM peptide + 50 nM BAK) | AUC for Experiment-1 (Mean) (Human BAK-∆TM-His6 (BAK); 50 μM peptide + 50 nM BAK) | AUC for Experiment-2 (Mean) (Human BAK-∆TM-His6 (BAK); 50 μM peptide + 50 nM BAK) | AUC for Experiment-3 (Mean) (Human BAK-∆TM-His6 (BAK); 50 μM peptide + 50 nM BAK) | EC50 (Human BAK-∆TM-His6 (BAK)) | direct BAK activation compared to WT BID BH3 (Human BAK-∆TM-His6 (BAK)) | IC50 (GST-BAK; [1]) | IC50 (GST-BAK; competitive FP, Experiment-1) | IC50 (GST-BAK; competitive FP, Experiment-2) | IC50 (GST-BAK; competitive FP, Experiment-3) | IC50 (GST-BAK; competitive FP, Experiment-4) | IC50 (GST-BAK; competitive FP, Experiment-5) | IC50 (GST-BAK; competitive FP, Experiment-6) | IC50 (GST-BAK; competitive FP, Experiment-7) | IC50 (GST-BAK; competitive FP, Experiment-8) | IC50 (GST-BAK; competitive FP, Experiment-9) | IC50 (GST-BAK; [2])
1 | Ac-EDIIRNIARHLAQFGDSMDRSI-NH2 [F(3)] | 18.713 | 17.421 | 16.388 | 17.267 | 18.39 | 17.889 | 0.11 ± 0.0161 µM | gain in direct BAK activation compared to WT BID BH3 | 11.3 ± 3.9 µM | – | – | – | – | – | – | – | – | – | –
2 | Ac-EDIIRNIARHFAQVGDSMDRSI-NH2 [F(2)] | 10.629 | 6.9165 | 10.58 | 9.2417 | 6.0451 | 8.2141 | 0.29 ± 0.0426 µM | – | – | – | – | – | – | – | – | – | – | – | –
3 | CC[C@H](C)[C@H](NC(=O)[C@H](CC(N)=O)NC(=O)[C@H](CCCNC(=N)N)NC(=O)[C@@H](NC(=O)[C@@H](NC(=O)[C@H](CC(=O)O)NC(=O)[C@H](CCC(=O)O)NC(C)=O)[C@@H](C)CC)[C@@H](C)CC)C(=O)N[C@@H](C)C(=O)N[C@@H](CCCNC(=N)N)C(=O)N[C@@H](Cc1c[nH]cn1)C(=O)N[C@@H](CC(C)C)C(=O)N[C@@H](C)C(=O)N[C@@H](CCC(N)=O)C(=O)N[C@H](C(=O)NCC(=O)N[C@@H](CC(=O)O)C(=O)N[C@@H](CO)C(=O)N[C@@H](CCSC)C(=O)N[C@@H](CC(=O)O)C(=O)N[C@@H](CCCNC(=N)N)C(=O)N[C@@H](CO)C(=O)N[C@@H](Cc1c[nH]c2ccccc12)C(N)=O)C(C)C [W(5)] | 15.613 | 13.293 | 17.537 | 10.056 | 8.1041 | 9.4463 | 0.11 ± 0.0577 µM | – | – | 10.88 µM | 9.859 µM | 9.959 µM | 6.417 µM | 8.231 µM | 7.397 µM | 10.36 µM | 8.244 µM | 7.774 µM | 8.8 µM
4 | Ac-EDIIRNIARHLAQVGDSYDRSI-NH2 [Y(4)] | 22.669 | 26.226 | 23.05 | 21.941 | 27.175 | 24.539 | 0.213 ± 0.0082 µM | gain in direct BAK activation compared to WT BID BH3 | 6.9 ± 5 µM | – | – | – | – | – | – | – | – | – | –
5 | Ac-EDIIRNIARHLAQVGDSFDRSI-NH2 [F(4)] | 9.5438 | 9.663 | 8.9802 | 10.729 | 10.153 | 6.338 | 0.229 ± 0.0111 µM | less direct BAK activation compared to WT BID BH3 | 11.9 ± 3.7 µM | – | – | – | – | – | – | – | – | – | –
6 | Ac-EDIIRNIARHLAQYGDSMDRSI-NH2 [Y(3)] | 14.1 | 10.652 | 12.187 | 18.672 | 10.496 | 13.717 | 0.372 ± 0.116 µM | – | 6.2 ± 1.5 µM | – | – | – | – | – | – | – | – | – | –
7 | Ac-EDIIRNIARHWAQVGDSMDRSI-NH2 [W(2)] | 4.9093 | 3.613 | 3.7546 | 2.3973 | 4.6314 | 0.7562* | 1.08 ± 0.453 µM | less direct BAK activation compared to WT BID BH3 | – | – | – | – | – | – | – | – | – | – | –
8 | Ac-EDIIRNWARHLAQVGDSMDRSI-NH2 [W(1)] | 5.265 | 7.491 | 5.218 | 7.873 | 8.991 | 6.529 | 1.7 ± 0.446 µM | less direct BAK activation compared to WT BID BH3 | – | – | – | – | – | – | – | – | – | – | –
9 | Ac-EDIIRNIARHLAQWGDSMDRSI-NH2 [W(3)] | 14.061 | 9.0873 | 8.9347 | 8.5044 | 6.7192 | 7.8089 | 0.163 ± 0.0053 µM | less direct BAK activation compared to WT BID BH3 | – | 7.12 µM | 5.471 µM | 7.795 µM | 5.632 µM | 5.62 µM | 7.05 µM | 5.661 µM | 7.109 µM | 8.02 µM | 6.6 µM
10 | Ac-EDIWRNIARHLAQVGDSMDRSI-NH2 [W(0')] | 15.025 | 10.6297 | 8.405 | 12.2448 | 5.78* | 12.8163 | 0.242 ± 0.0663 µM | – | 27.4 ± 16.4 µM | – | – | – | – | – | – | – | – | – | –
11 | Ac-EDIIRNIARHLAQMGDSMDRSI-NH2 [M(3)] | 20.936 | 21.86 | 19.004 | 18.852 | 17.743 | 12.625 | 0.114 ± 0.0225 µM | gain in direct BAK activation compared to WT BID BH3 | – | 5.395 µM | 4.243 µM | 5.717 µM | 4.044 µM | 4.59 µM | 4.39 µM | 3.925 µM | 4.319 µM | 4.861 µM | 4.6 µM
12 | Ac-EDIIRNIARHMAQVGDSMDRSI-NH2 [M(2)] | 8.056 | 3.548 | 5.055 | 8.1746 | 3.897 | 7.008 | 0.366 ± 0.0892 µM | – | – | – | – | – | – | – | – | – | – | – | –
13 | Ac-EDIIRNIARHYAQVGDSMDRSI-NH2 [Y(2)] | 4.2367 | 5.3994 | 3.7484 | 8.0372 | 6.4388 | 4.7986 | 1.21 ± 0.696 µM | less direct BAK activation compared to WT BID BH3 | – | – | – | – | – | – | – | – | – | – | –
